The record followed here is ChEMBL document CHEMBL4804282, “Quinoline-based compounds and methods of inhibiting cdk8/19” (2020).

Activity calls are given as the source filed them. The calls are words filed in the database; no cut-off is given here.

For data set [1], the target named is Cyclin-dependent kinase 8 (Homo sapiens) (UniProt P49336). Briefly: Inhibition of human CDK8 at 2000 nM by KINOMEscan assay.
The target of data set [2] is Cyclin-dependent kinase 19 (Homo sapiens) (UniProt Q9BWU1). Briefly: Inhibition of human CDK19 at 2000 nM by KINOMEscan assay.
For data set [3], the target named is T1, Serine/threonine-protein kinase haspin (Homo sapiens) (UniProt Q8TF76).
T1 sequence (whole entry): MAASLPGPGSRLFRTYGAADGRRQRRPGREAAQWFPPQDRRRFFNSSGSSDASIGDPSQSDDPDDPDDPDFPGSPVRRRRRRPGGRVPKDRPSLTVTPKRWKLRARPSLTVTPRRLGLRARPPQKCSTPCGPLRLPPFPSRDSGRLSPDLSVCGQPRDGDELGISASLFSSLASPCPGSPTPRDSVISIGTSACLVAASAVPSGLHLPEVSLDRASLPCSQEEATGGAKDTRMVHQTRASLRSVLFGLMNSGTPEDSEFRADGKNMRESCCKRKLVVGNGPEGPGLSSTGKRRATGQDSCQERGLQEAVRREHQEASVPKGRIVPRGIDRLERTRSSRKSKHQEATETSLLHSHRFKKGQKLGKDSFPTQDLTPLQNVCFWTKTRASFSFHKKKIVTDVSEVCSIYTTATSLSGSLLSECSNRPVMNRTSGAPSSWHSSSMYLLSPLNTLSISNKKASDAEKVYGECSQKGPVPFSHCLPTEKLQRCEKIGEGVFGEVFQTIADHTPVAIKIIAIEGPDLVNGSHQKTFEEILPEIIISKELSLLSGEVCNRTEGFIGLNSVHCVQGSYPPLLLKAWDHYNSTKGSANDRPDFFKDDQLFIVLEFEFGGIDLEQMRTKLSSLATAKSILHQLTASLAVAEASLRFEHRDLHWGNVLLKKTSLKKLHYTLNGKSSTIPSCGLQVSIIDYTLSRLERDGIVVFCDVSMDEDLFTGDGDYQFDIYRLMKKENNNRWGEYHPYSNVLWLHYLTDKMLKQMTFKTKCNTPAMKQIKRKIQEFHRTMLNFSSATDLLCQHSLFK
Briefly: Inhibition of human HASPIN at 2000 nM by KINOMEscan assay.

Data set [4] addresses T2, Mitogen-activated protein kinase kinase kinase kinase 2 (Homo sapiens) (UniProt Q12851).
T2 sequence (whole entry): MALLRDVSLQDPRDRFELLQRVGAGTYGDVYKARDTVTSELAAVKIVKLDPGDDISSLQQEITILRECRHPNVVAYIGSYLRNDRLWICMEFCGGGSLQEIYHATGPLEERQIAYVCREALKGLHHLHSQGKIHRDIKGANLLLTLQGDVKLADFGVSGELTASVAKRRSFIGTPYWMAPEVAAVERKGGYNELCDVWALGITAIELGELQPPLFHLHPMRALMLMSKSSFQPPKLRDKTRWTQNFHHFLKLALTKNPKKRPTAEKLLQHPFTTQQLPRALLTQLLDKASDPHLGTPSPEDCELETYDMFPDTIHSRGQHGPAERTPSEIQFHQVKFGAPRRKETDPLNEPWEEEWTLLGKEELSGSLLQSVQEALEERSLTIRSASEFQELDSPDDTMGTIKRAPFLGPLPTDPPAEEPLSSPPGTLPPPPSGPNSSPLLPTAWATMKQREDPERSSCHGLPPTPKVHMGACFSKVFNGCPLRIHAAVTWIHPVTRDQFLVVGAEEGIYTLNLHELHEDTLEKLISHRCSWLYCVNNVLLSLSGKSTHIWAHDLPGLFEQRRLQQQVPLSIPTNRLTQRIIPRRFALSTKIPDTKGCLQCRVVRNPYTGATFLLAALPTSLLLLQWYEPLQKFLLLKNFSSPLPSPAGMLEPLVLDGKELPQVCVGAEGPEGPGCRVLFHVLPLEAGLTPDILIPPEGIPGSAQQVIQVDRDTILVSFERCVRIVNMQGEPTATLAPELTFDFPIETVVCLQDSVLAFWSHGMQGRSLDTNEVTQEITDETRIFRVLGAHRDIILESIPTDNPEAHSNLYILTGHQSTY
Briefly: Inhibition of human MAP4K2 at 2000 nM by KINOMEscan assay.

In data set [5] the target is T3, Myosin-IIIb (Homo sapiens) (UniProt Q8WXR4).
T3 sequence (whole entry): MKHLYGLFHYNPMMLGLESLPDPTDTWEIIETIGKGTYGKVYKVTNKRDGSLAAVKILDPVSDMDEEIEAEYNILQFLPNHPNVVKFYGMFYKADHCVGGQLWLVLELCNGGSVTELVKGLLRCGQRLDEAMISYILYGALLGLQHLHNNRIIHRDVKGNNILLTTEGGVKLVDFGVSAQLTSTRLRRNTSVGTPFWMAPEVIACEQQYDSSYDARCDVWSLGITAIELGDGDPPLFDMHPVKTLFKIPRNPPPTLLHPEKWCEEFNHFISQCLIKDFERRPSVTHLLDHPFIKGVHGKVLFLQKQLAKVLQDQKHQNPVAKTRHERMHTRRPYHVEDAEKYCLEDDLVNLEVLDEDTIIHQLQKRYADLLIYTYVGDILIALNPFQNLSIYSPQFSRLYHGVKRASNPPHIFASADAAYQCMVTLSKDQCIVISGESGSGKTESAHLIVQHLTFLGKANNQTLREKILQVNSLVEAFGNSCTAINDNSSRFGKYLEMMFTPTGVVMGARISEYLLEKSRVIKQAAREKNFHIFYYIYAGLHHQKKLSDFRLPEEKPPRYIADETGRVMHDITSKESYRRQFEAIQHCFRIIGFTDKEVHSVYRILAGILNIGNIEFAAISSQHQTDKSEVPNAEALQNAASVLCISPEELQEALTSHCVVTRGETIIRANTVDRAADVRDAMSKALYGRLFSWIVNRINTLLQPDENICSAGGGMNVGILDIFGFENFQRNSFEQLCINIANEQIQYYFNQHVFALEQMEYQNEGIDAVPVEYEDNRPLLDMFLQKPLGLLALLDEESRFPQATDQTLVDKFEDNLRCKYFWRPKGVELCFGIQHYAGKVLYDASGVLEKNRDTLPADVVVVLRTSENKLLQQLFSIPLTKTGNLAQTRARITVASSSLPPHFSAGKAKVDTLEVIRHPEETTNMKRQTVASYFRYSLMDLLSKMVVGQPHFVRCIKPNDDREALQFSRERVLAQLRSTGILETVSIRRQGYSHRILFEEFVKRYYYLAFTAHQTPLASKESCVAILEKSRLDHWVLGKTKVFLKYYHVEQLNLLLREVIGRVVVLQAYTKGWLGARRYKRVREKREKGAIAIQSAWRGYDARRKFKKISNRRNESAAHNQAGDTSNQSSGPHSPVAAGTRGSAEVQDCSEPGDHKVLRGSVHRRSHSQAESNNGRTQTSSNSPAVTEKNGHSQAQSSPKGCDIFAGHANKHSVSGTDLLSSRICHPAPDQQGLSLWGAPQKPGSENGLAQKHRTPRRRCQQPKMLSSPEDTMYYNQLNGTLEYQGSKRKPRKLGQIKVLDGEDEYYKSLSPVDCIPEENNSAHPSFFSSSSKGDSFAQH
Briefly: Inhibition of human MYO3B at 2000 nM by KINOMEscan assay.

Data set [6] addresses T4, Cyclin-dependent kinase 8/19 (Homo sapiens) (UniProt P49336+Q9BWU1). Briefly: Inhibition of CDK8/CDK19 in HEK293 cells assessed as reduction in JUN expression at 1 uM incubated for 2 hrs and measured after 24 hrs of compound wash-off. It counts as cell-based.
The target of data set [7] is T4, Cyclin-dependent kinase 8/19 (Homo sapiens). Briefly: Inhibition of CDK8/CDK19 in HEK293 cells assessed as reduction in MYC expression at 1 uM incubated for 2 hrs and measured after 24 hrs of compound wash-off. The data set is classed as cell-based.
A short description of data set [8]: Metabolic stability of compound in human hepatocytes assessed as metabolic conversion rate by LC/MS/MS analysis. It counts as ADME, cell-based, Hepatocyte.
Data set [9] can be described thus: Elimination rate in female FVB mouse at 19 mg/kg, ip by LC/MS/MS analysis. The data set is classed as ADME, organism-based. The conditions noted are these: in vivo.
A short description of data set [10]: Inhibition of prostate specific antigen (PSA) production in human LNCaP C4-2 cells measured after 4 days by ELISA assay. The data set is classed as functional, cell-based. The conditions noted are these: LNCaP C4-2, 96 h. A general note: An ELISA detects its analyte on a solid surface through an enzyme-linked reagent.
Data set [11] in a line: AUC (0-8 h) in female FVB mouse at 30 mg/kg, po. The data set is classed as ADME, organism-based. The arrangement: time < 8 hr, route oral, dose 30 mg/kg. The note with it: in vivo.
Data set [12] in a line: Half-life in female FVB mice at 30 mg/kg, po. It counts as ADME, organism-based. The note with it: mouse, in vivo.
The subject of a further data set is LNCaP C4-2. Briefly: Antitumor activity against human C4-2 cells xenografted in male NcrNU mouse assessed as decrease in PSA mRNA levels in tumor at 40 mg/kg, po administered for 4 days. It counts as functional, organism-based. On the technique in general: In xenograft studies the graft and the host belong to different species.
The nature of data set [13]: Drug uptake in tumor of male NcrNU mouse xenografted with human C4-2 cells at 40 mg/kg, po administered for 4 days. The data set is classed as ADME, organism-based, Neoplasm, LNCaP C4-2. The note with it: in vivo, 96 h.
A further data set concerns 4T1. Briefly: Antitumour activity against mouse 4T1 cells xenografted in female Balb/c mouse assessed as increase in animal survival at 40 mg/kg, po administered twice per day. It counts as functional, organism-based.
Data set [14] can be described thus: Ratio of tumor to blood biodistribution in male NcrNU mouse xenografted with 22Rv1 human xenografts at 20 mg/kg, ip. It counts as ADME, organism-based, Serum/Tumor.
Data set [15] deals with Cyclin-dependent kinase 8 (Homo sapiens) (UniProt P49336). Briefly: Inhibition of CDK8 in TNF-alpha-induced HEK293 cells at 1 uM by NF-kappaB reporter assay relative to control. The data set is classed as cell-based. (In general: A reporter such as luciferase makes a cellular process visible.)
Data set [16] deals with T3, Myosin-IIIb (Homo sapiens). Briefly: Inhibition of human MYO3B by DiscoverX assay.
The nature of data set [17]: AUC in female FVB mouse at 27 mg/kg, ip by LC/MS/MS analysis. The note with it: in vivo. Also on record: dose 27 mg/kg. It counts as ADME, organism-based.
Data set [18] in a line: Elimination rate in female FVB mouse at 27 mg/kg, ip by LC/MS/MS analysis. The data set is classed as ADME, organism-based. The note with it: in vivo.
A short description of data set [19]: Half-life in female FVB mouse at 27 mg/kg, ip by LC/MS/MS analysis. The note with it: in vivo. It counts as ADME, organism-based.

Cyclin-dependent kinase 8 (Homo sapiens), sequence (P49336 whole entry): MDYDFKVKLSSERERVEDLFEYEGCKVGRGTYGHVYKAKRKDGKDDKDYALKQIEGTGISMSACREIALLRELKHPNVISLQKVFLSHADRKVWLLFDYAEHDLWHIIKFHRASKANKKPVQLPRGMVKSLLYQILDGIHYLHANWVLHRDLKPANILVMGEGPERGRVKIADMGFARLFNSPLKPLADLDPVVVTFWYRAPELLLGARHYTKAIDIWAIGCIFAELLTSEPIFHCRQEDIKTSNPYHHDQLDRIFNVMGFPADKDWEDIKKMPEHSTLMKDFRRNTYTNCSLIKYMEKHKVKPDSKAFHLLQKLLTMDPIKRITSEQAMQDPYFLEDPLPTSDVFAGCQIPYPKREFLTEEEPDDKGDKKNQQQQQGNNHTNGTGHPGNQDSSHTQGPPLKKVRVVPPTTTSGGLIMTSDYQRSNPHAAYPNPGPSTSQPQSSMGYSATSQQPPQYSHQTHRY
T4 sequence (P49336 whole entry, looked up): as the sequence (P49336 whole entry) above
T4 sequence (Q9BWU1 whole entry, looked up): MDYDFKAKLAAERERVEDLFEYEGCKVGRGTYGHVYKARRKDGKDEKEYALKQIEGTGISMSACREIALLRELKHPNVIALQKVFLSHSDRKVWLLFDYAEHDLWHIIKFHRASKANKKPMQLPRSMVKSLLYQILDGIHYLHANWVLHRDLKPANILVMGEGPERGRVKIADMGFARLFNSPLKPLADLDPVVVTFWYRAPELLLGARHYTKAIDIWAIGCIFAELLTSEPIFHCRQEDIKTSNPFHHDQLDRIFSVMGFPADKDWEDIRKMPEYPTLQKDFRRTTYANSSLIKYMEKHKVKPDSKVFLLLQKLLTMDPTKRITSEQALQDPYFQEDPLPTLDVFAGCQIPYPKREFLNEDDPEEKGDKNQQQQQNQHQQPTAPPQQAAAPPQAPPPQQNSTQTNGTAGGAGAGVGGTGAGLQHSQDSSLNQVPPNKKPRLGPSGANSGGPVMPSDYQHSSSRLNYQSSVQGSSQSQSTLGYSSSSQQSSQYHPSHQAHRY
Cyclin-dependent kinase 19 (Homo sapiens), sequence (Q9BWU1 whole entry): as the sequence (Q9BWU1 whole entry, looked up) above

For the compound `CN1CCN(C(=O)c2ccc3cc(CCNc4ccnc5ccc(C#N)cc45)ccc3c2)CC1`, the inhibition in data set [1], in data set [2], in data set [3], in [4] and in [5] was over 65% throughout. In addition, the inhibition result in data set [6] and in data set [7] was “Active” throughout. In addition, the Stabilty result in data set [8] is recorded as “Stable”. In [9], this compound showed a k el of 0.000261 s⁻¹. In [10], this compound had an IC50 of 82 nM. For the same compound, the AUC(0-t) at 8 h in data set [11] stood at 817 ng·h/mL. Besides, in data set [12], the half-life is 228 min. Further, the result with LNCaP C4-2 and in the data set on 4T1 was Active. For the same compound, the Drug uptake result in [13] is “Active”. For the same compound, the Kp in [14] came to 5.
Take `Brc1ccc2nccc(NCCc3ccccc3)c2c1`: the inhibition in [15] turned out to be 10%.
For `Clc1ccc2nccc(NCCc3ccccc3)c2c1`, the inhibition in [15] turned out to be 8%.
With `CN1CCN(C(=O)c2ccc3cc(CCNc4ncnc5ccc(C#N)cc45)ccc3c2)CC1` [SENEXIN B], the inhibition result in data set [16] is “inactive”. The Stabilty result in data set [8] was “Unstable”. This compound also came in with an AUC in [17] of 1760 ng·h/mL. The same compound had a k el in data set [18] of 0.00111 s⁻¹. In [19], this compound had a half-life of 10.2 min. Moreover, the IC50 in data set [10] is 222 nM.

As usually defined, the inhibition is how much of the control response was suppressed. As a reminder, the IC50 is the midpoint of a concentration-inhibition curve. Broadly, the AUC(0-t) is the area under the concentration-time curve up to a stated or last time point. High values mean more exposure, low ones less exposure. For orientation: half-life means the time in which the quantity being followed falls by half. A higher half-life goes with slow decline. As usually defined, the Kp is the ratio of the level in a tissue or fluid to that in plasma or blood. A word on the AUC: it is concentration integrated over time. A high value points to more exposure.
